Experimental data from ChEMBL document CHEMBL1201862, “PubChem BioAssay data set” (2004).
Calls of active or inactive are those of the source.

Experiments:
[1] = biological target: T1, Heat shock factor protein 1 (Mus musculus, UniProt P38532); experiment: inhibition of MG132-induced HSE-luciferase signal, confirmation, cell-based, NIH3T3, luminescence, dose retest (AID 2382); assay type: functional;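 note: NIH3T3 fibroblasts with HSF1-driven luciferase reporter stressed by proteasome inhibitor MG132; luminescence from HSF1-driven luciferase expression after 8 hours of MG132 stress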
T1 sequence (P38532 whole entry): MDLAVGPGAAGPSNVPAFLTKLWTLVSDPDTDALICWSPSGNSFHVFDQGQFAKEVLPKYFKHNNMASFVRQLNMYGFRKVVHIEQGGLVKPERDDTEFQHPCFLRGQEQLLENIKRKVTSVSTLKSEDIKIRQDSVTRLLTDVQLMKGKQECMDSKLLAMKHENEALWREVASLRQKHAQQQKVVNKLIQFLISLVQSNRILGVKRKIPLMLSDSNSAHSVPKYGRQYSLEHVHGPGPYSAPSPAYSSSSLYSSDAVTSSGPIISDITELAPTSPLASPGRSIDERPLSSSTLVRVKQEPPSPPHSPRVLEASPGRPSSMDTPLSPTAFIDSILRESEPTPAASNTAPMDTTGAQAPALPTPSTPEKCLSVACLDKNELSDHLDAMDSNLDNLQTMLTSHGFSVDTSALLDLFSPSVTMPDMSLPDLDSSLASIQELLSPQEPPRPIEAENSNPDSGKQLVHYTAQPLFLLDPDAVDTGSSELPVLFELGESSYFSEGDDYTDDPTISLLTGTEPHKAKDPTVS

[2] = inhibitors of HIV Env-driven cell fusion, dose response, cherry-pick (AID 652057); assay type: functional, cell-based
Paired box protein Pax-8 = Paired box protein Pax-8 (Homo sapiens, UniProt Q06710); experiment: inhibitors of PAX8-driven TPO luciferase reporter, dose response, RMG-I cells, cherry-pick (AID 687027); assay type: functional, cell-based;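 note: luciferase reporter driven by Pax8 target thyroperoxidase promoter measured by SteadyGlo luminescence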
Chain of Paired box protein Pax-8 (Q06710 whole entry): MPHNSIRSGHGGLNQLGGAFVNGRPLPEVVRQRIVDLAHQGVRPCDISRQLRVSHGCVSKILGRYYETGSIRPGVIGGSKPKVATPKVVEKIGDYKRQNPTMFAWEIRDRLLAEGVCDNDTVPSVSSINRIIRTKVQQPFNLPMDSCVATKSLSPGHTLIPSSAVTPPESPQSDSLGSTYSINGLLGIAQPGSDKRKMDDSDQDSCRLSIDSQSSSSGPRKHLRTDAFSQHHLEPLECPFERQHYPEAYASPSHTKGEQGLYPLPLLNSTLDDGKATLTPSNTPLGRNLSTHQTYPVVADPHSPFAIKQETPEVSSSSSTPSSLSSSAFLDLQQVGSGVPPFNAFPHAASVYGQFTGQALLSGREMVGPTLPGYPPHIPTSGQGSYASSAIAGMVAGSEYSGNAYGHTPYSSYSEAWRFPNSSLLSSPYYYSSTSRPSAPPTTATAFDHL

[3] = biological target: Luciferin 4-monooxygenase (Photuris pensylvanica, UniProt Q27757); experiment: firefly luciferase enzyme inhibitors, dose response, counter-screen for HSF-1 reporter inhibitor project, biochemical, Cell Titer Glo, luminescence, cherry-picks (AID 588847)
[4] = inhibitors of firefly luciferase expression or activity, dose response, H4 neuroglioma cells, luminescence (AID 1990); assay type: functional, cell-based
[5] = ZM109 Env clade C HIV-1 fusion inhibitors, dose response, HeLa effector, CEM target cells, luciferase, cherry-pick (AID 652058); assay type: functional, cell-based
[6] = off-target signal loss in HeLa-CEM21 co-culture – HeLa F-luc CTL cells, cherry-picked, counter-screen for HIV-1 Env fusion inhibitor project, dose response (AID 652040); assay type: functional, cell-based;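 note: potency for signal decrease marking cytotoxic or nonspecific inhibition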
[7] = Shn3 3'UTR reporter inhibitors, dose response, cell-based, Clone20 osteoblasts, firefly luciferase, cherry-picked (AID 624132); assay type: functional;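 note: firefly luciferase luminescence from reporter carrying the Shn3 3'UTR in osteoblasts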
[8] = inhibitors of clade B AD8 Env fusion, dose response, cell-based, cherry-pick (AID 652062); assay type: functional;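 note: luciferase signal from cell-cell fusion driven by HIV-1 clade B AD8 Env; potency is for inhibitors of fusion seen as a drop in luminescence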
[9] = inhibitors of SNCA 5'UTR-driven reporter translation, confirmation, H4 neuroglioma cells, luminescence (AID 1988); assay type: functional, cell-based
[10] = non-specific cell cytotoxicity, dose response, cytotoxicity control for PAX8 inhibitor project, plate reader, dry powder samples (AID 743021); assay type: functional, cell-based
[11] = HepG2 cell cytotoxicity, dose response, cytotoxicity control for Shn3 inhibitor project, CellTiter-Glo, cherry-picked (AID 624134); assay type: functional, cell-based
[12] = Luminescence Cell-Based Dose Response HTS to Identify Inhibitors of 5'UTR Stem-Loop Driven Prion Protein mRNA Translation in H4 Neuroglioblastoma Cells. [Related pubchem assays: 1827 (Project Summary), 1813 (Primary HTS)]; assay type: functional
[13] = CEM21 lymphoblast cell cytotoxicity, dose response, cytotoxicity control for viral fusion inhibitor project, CellTiter-Glo luminescence, cherry-picked (AID 652042); assay type: functional, cell-based;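 note: potency for signal decrease meaning cytotoxicity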
[14] = control 3'UTR Renilla luciferase suppression, dose response, counter-screen for Shn3 inhibitor project, cell-based, Clone20-Shn3RL, cherry-picked (AID 624133); assay type: functional
[15] = biological target: Heat shock protein HSP 90-alpha (Homo sapiens, UniProt P07900); experiment: Luminescence-based dose response biochemical high throughput screening assay for inhibitors of the Heat Shock Protein 90 (HSP90). [Related pubchem assays: 1831 (Summary AID.), 1846 (Confirmation screen.), 1789 (Primary screen.)]
[16] = biological target: Beta-adrenergic receptor kinase 1 (Homo sapiens, UniProt P25098); experiment: aptamer displacement from bead-bound GRK2 – biochemical, cherry pick 1, bead flow cytometry, dose response (AID 504500)
[17] = biological target: T2, Voltage-gated N-type calcium channel alpha-1B subunit/Amyloid beta A4 precursor protein-binding family A member 1 (Homo sapiens, UniProt Q00975+Q02410); assay type: protein assay
T2 sequence (Q00975 whole entry): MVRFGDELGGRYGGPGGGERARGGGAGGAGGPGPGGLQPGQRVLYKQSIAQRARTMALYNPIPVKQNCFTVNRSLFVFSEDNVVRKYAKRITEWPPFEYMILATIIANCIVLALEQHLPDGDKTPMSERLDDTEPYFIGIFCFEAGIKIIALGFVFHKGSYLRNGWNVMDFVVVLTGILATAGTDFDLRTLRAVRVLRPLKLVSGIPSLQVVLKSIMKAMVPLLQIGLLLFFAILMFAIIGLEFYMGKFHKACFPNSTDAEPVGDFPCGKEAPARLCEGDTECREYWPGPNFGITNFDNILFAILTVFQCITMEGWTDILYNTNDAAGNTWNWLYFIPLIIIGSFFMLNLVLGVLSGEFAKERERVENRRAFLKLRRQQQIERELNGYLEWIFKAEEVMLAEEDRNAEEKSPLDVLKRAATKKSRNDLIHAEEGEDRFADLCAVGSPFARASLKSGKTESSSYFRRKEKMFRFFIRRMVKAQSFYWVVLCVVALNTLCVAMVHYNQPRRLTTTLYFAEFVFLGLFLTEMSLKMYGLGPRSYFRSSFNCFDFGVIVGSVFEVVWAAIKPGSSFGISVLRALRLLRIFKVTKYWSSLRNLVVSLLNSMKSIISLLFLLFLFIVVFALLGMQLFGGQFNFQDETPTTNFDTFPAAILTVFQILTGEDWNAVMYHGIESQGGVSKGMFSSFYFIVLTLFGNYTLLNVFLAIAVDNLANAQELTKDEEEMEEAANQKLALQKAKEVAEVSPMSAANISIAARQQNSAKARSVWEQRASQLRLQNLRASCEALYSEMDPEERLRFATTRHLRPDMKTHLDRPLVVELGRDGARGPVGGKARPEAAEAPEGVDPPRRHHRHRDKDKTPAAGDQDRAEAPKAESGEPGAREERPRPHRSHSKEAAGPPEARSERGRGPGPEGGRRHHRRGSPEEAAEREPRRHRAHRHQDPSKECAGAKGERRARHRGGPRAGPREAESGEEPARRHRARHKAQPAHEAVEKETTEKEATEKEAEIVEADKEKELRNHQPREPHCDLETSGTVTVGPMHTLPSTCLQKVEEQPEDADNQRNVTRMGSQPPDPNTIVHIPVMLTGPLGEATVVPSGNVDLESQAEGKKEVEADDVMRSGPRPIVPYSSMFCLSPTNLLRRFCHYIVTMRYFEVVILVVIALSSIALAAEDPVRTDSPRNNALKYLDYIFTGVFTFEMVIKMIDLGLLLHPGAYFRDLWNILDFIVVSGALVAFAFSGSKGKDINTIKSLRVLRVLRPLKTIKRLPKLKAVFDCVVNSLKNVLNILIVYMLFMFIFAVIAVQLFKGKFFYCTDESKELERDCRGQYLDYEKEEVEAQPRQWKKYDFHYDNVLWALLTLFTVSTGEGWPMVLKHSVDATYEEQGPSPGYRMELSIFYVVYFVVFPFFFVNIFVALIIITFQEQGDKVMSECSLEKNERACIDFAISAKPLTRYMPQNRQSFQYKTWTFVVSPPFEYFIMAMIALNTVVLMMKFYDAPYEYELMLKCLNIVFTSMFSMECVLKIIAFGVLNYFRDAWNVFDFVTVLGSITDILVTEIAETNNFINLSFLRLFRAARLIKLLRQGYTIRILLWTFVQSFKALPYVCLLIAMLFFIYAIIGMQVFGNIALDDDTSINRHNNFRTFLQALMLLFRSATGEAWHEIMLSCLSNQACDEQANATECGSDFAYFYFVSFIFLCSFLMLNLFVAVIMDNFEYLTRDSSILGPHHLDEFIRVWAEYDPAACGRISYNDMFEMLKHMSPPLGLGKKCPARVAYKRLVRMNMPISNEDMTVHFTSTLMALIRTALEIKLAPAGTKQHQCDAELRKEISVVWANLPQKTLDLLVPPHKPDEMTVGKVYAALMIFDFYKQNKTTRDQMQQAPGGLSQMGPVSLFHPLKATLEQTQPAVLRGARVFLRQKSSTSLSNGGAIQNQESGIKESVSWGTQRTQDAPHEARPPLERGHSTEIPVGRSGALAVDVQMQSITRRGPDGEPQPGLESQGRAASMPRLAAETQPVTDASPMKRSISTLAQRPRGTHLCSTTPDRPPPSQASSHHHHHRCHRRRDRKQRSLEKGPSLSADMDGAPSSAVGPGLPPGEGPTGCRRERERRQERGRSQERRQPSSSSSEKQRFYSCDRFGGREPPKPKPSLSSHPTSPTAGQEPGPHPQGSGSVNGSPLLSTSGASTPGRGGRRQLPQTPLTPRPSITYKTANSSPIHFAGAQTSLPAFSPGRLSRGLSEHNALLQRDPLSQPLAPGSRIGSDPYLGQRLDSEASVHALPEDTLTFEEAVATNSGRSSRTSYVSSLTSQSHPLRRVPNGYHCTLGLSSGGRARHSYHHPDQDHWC
T2 sequence (Q02410 whole entry): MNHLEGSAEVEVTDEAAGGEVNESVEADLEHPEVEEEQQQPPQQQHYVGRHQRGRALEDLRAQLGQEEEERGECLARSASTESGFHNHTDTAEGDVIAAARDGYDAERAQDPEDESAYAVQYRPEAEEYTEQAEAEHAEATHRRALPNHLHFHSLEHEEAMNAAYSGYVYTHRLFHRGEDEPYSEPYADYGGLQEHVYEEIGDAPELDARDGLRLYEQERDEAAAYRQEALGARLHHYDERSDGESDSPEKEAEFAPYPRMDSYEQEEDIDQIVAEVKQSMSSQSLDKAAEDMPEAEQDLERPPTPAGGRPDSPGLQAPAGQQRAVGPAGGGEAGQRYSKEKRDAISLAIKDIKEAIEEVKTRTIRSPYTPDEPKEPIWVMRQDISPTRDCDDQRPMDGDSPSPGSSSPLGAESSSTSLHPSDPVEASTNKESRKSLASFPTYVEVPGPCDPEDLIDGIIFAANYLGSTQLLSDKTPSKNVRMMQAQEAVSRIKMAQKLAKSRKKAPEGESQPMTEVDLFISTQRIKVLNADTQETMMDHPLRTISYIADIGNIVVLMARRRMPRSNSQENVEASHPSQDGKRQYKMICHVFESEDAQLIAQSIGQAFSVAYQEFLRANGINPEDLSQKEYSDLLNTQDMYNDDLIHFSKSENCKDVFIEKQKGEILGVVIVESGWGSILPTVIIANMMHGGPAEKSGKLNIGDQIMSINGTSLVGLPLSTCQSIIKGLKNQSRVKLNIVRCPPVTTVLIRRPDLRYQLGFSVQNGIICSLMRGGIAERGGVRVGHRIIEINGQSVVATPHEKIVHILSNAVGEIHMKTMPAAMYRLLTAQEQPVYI

Caspase-6 = biological target: T3, Caspase-6 (Homo sapiens, UniProt P55212); experiment: human caspase-6 inhibitors, dose response, biochemical, VEID-R110 fluorescence, cherry-pick (AID 720632)
T3 sequence (P55212 whole entry): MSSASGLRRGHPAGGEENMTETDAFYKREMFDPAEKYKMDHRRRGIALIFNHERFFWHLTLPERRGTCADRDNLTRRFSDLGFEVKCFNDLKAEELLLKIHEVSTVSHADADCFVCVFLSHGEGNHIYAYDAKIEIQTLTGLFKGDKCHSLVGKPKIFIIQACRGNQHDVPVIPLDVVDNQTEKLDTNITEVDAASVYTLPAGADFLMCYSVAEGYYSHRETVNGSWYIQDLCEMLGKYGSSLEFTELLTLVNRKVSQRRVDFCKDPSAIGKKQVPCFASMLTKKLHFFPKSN

[18] = biological target: T2, Voltage-gated N-type calcium channel alpha-1B subunit/Amyloid beta A4 precursor protein-binding family A member 1; assay type: protein assay; remark: listed apart in the source
[19] = biological target: T4, Bifunctional protein GlmU (Mycobacterium tuberculosis, UniProt P9WMN3); experiment: Inhibitors of Mycobacterial Glucosamine-1-phosphate acetyl transferase (GlmU). Secondary screen.; set-up: species or system Mycobacterium tuberculosis H37Rv
T4 sequence (P9WMN3 whole entry): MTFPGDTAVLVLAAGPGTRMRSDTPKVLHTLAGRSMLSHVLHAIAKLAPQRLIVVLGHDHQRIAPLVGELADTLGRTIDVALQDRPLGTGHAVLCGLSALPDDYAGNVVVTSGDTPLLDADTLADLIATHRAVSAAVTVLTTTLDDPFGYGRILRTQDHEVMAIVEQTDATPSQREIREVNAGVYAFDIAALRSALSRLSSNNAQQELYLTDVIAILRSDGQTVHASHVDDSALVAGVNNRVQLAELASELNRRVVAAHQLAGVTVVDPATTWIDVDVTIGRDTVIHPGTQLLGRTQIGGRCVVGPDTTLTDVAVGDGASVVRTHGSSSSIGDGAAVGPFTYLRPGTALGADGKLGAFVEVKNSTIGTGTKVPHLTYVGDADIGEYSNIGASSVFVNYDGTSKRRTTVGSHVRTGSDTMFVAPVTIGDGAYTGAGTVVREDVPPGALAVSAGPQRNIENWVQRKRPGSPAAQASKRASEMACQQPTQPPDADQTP

[20] = LGR2 antagonists, dose response, cell-based, HEK293, CRE-luciferase reporter, cherry pick, set 2 (AID 743343); assay type: functional;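 note: transfected cells were stimulated with diluted bursicon conditioned medium after compound addition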
HEK293 [21] = experiment: inhibitors of LMP1-driven NF-kB reporter, dose response, cell-based, HEK293, luciferase, cherry-pick (AID 588343); assay type: functional; settings: Homo sapiens
[22] = biological target: Histone-lysine N-methyltransferase NSD2 (Homo sapiens, UniProt O96028); assay type: biochemical
[23] = MC4R antagonists, dose response, counter-screen for LGR2 antagonist project, cell-based, plate reader, cherry pick (AID 743444); assay type: functional;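 note: transfected HEK 293 cells stimulated with alpha-MSH peptide; potency of inhibitors of the alpha-MSH evoked signal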
HEK293 [24] = experiment: cytotoxicity in HEK293T NF-kB-Luc cells, SAR follow-up, cytotoxicity control for NF-kB activator project, cell-based, resazurin fluorescence (AID 493251); assay type: functional; settings: Homo sapiens
[25] = Fluorescence polarization-based biochemical high throughput dose response assay for activators of the Protein Kinase A-R1A (PKA-R1A) complex. [Related pubchem assays (depositor defined):AID504704, AID504707, AID504799, AID504800]
[26] = Fluorescence polarization-based biochemical high throughput dose response assay for activators of the Protein Kinase A-R2B (PKA-R2B) complex. [Related pubchem assays (depositor defined):AID504700, AID504704, AID504796, AID504797]
[27] = biological target: Delta-type opioid receptor (Homo sapiens, UniProt P41143); experiment: Counterscreen for agonists of heterodimerization of the mu 1 (OPRM1) and delta 1 (OPRD1) opioid receptors: Luminescence-based cell-based high throughput dose response assay to identify agonists of OPRD1 homodimerization. [Related pubchem assays (depositor defined):AID504326, AID504355, AID504692, AID504904, AID504905]; assay type: functional
Chain of Delta-type opioid receptor (P41143 whole entry): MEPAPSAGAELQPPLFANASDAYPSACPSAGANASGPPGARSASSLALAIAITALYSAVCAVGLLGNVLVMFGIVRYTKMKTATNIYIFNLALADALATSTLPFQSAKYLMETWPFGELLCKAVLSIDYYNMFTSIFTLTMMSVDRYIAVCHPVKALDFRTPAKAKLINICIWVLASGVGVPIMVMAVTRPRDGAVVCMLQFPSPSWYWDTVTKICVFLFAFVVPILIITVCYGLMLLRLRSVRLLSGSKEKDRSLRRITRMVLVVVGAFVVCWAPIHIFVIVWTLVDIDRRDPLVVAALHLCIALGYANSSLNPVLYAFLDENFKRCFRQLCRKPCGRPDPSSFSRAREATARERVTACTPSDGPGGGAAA

[28] = THP-1 cell cytotoxicity, dose response, cytotoxicity control for Vif-APOBEC3G degradation inhibitor project, THP-1 cells (AID 1117359); assay type: functional; settings: Human immunodeficiency virus 1, THP-1
Nonstructural protein 1 = Nonstructural protein 1 (Influenza A virus, UniProt Q194T2); assay type: functional, Influenza A virus (A/California/07/2009(H1N1))
[29] = HeLa cell cytotoxicity, dose response, cytotoxicity control for MgcRacGAP inhibitor project (AID 624300); assay type: functional
[30] = biological target: 5-hydroxytryptamine receptor 5A (Homo sapiens, UniProt P47898); experiment: Counterscreen for agonists of OPRM1-OPRD1 heterodimerization: luminescence-based cell-based high throughput dose response assay to identify agonists of 5-hydroxytryptamine (serotonin) 5A receptor (HTR5A). [Related pubchem assays (depositor defined):AID504326, AID504355, AID504692, AID504904, AID504905]; assay type: functional
[31] = biological target: Glutathione-S-transferase (Schistosoma japonicum, UniProt Q26513); experiment: biotin-GST/anti-GST TR-FRET signal inhibitors, dose response, artefact control for Vif-APOBEC3G degradation inhibitor project, biochemical (AID 1117362); assay type: functional
Chain of Glutathione-S-transferase (Q26513 whole entry): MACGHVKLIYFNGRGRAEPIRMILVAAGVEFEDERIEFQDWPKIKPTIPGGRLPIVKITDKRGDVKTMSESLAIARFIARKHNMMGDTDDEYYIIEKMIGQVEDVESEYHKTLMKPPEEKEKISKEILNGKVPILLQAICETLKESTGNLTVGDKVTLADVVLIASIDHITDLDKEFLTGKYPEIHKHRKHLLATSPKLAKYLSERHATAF

[32] = biological target: T5, Rac GTPase-activating protein 1 (Homo sapiens, UniProt Q9H0H5); experiment: MgcRacGAP GTPase-activating activity inhibitors, confirmation, biochemical, ADP Hunter fluorescence, primary and confirmatory (AID 624330); assay type: functional
T5 sequence (Q9H0H5 whole entry): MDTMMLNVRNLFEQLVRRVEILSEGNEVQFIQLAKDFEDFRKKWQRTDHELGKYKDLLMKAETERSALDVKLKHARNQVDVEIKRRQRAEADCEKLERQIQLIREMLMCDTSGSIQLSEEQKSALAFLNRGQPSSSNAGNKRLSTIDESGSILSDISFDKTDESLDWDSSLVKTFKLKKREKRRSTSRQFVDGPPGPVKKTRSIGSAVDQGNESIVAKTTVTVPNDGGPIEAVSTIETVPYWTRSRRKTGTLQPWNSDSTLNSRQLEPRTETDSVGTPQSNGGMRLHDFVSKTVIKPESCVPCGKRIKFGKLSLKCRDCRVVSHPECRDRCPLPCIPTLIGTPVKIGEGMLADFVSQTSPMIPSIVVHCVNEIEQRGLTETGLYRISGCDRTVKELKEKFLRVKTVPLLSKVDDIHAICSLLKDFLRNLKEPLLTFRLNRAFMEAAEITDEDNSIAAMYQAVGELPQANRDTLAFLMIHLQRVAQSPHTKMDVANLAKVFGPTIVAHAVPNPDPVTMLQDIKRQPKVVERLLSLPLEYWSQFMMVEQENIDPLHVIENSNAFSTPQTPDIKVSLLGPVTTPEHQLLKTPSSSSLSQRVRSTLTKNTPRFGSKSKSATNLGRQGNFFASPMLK

Mu-type opioid receptor = Mu-type opioid receptor (Homo sapiens, UniProt P35372); experiment: Counterscreen for agonists of heterodimerization of the mu 1 (OPRM1) and delta 1 (OPRD1) opioid receptors: Luminescence-based cell-based high throughput dose response assay to identify agonists of OPRM1 homodimerization.; assay type: functional;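 note: U2OS cells expressing OPRM1 and beta-arrestin as split beta-galactosidase partners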
Chain of Mu-type opioid receptor (P35372 whole entry): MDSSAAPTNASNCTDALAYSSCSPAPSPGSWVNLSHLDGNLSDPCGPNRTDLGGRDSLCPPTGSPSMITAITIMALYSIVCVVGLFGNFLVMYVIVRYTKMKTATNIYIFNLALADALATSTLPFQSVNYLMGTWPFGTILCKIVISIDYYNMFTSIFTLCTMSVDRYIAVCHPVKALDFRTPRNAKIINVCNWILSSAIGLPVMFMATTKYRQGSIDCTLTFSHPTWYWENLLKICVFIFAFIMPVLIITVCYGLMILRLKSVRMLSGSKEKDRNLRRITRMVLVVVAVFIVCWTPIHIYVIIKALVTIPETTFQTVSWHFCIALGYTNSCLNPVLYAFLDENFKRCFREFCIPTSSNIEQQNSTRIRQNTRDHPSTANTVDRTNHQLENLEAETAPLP

[33] = biological target: Beta-2 adrenergic receptor (Homo sapiens, UniProt P07550); experiment: beta2AR agonists driving receptor internalization, dose response, cell-based, FAP fluorogen, flow cytometry, cherry pick 1 (AID 588763); assay type: functional
Chain of Beta-2 adrenergic receptor (P07550 whole entry): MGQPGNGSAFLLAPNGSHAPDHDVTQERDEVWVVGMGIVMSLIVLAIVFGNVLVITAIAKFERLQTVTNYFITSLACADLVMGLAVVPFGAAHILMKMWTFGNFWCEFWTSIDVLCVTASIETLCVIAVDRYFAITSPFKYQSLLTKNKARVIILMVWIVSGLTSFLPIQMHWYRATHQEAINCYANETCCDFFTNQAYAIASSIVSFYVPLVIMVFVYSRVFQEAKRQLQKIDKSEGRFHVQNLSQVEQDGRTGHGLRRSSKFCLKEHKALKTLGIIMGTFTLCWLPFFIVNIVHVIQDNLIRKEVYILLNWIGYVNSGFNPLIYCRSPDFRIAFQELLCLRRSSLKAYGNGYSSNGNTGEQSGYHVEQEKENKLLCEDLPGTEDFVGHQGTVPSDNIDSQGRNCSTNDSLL

CC1CCN(c2ccc(-c3cccc(NC(=O)C(F)(F)F)c3)nn2)CC1
inconclusive: EC50 [4] 5.09 µM | EC50 [9] 0.475 µM
active: EC50 [1] < 0.16 µM | AC50 [2] 2.55 µM | AC50 (Paired box protein Pax-8) 3.37 µM | AC50 [3] 29.2 µM | AC50 [5] 36.5 µM | AC50 [6] 4.11 µM | AC50 [7] 2.74 µM | AC50 [8] 11.5 µM | AC50 [10] 32 µM | AC50 [11] 44.1 µM | EC50 [12] 8.19 µM | AC50 [13] 32.2 µM | AC50 [14] 3.1 µM | IC50 [15] 8.01 µM

O=C(O)c1c2c(nc3ccccc13)/C(=C/c1ccc(O)cc1)CC2
active: IC50 [17] 3.85 µM | AC50 (Caspase-6) 2 µM | IC50 [18] 18.4 µM | IC50 [19] 124 µM | AC50 [20] 6.42 µM | AC50 (HEK293 [21]) 1.93 µM | AC50 [22] 9.03 µM | AC50 [23] 6.44 µM
inactive: EC50 [16] 33.3 µM

Cc1oc(-c2ccccc2)nc1CSCC(=O)NC1CC1
inactive: IC50 (HEK293 [24]) > 80 µM

CCCC(=O)Nc1ncnc2c1ncn2[C@@H]1O[C@@H]2OP(=O)(O)OC[C@H]2[C@H]1OC(=O)CCC
active: EC50 [25] 6.7 µM | EC50 [26] 9.1 µM

CCN(CC)Cc1cc(Nc2c3ccccc3nc3c4ccccc4n(C)c23)cc(CN(CC)CC)c1O
inactive: EC50 [30] > 92.6 µM | EC50 (Mu-type opioid receptor) > 92.6 µM
active: EC50 [27] 1.49 µM | CC50 [28] 11 µM | IC50 (Nonstructural protein 1) 17.9 µM | CC50 [29] 80 µM | IC50 [31] 59.5 µM | IC50 [32] 22.1 µM

CC1=C(C(=O)Nc2ccc(C(=O)N3CCN(c4ccccc4F)CC3)cc2)SCCO1
active: EC50 [33] 3.01 µM
